Target: T1, Mitogen-activated protein kinase kinase kinase 12 (Homo sapiens, UniProt Q12852)
T1 sequence (Q12852 whole entry): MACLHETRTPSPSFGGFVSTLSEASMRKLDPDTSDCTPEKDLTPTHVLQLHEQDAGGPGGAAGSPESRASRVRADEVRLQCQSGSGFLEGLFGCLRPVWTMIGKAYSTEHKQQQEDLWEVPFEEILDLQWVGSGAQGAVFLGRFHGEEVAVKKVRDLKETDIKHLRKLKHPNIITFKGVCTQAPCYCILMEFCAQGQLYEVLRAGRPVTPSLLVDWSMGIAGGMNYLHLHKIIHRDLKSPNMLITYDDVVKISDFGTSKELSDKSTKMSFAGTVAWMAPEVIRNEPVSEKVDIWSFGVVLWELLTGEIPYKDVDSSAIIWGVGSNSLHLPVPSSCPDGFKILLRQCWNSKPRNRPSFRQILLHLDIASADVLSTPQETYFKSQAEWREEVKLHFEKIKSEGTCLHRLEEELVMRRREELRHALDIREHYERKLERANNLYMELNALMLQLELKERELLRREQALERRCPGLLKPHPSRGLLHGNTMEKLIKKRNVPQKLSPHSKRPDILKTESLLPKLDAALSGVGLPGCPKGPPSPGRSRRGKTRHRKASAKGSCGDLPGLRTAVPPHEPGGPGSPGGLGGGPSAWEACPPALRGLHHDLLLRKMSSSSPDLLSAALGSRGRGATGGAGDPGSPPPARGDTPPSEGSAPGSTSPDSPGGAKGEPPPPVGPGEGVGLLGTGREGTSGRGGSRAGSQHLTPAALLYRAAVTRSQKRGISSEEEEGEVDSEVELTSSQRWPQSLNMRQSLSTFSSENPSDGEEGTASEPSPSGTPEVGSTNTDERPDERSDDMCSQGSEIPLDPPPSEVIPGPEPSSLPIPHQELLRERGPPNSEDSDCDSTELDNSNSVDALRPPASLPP
Test: TR-FRET assay: DLK kinase reactions (20 μL) containing 5 nM N-terminally GST-tagged DLK (catalytic domain amino acid 1-520) (Carna Bioscience), 40 nM N-terminally HIS-tagged MKK4 K131M substrate, and 30 μM ATP in kinase reaction buffer (50 mM HEPES, pH 7.5, 0.01% Triton X-100, 0.01% Bovine γ-Globulins, 2 mM DTT, 10 mM MgCl2 and 1 mM EGTA), and testing compound 1:3 serial diluted starting at 20 uM were incubated at ambient temperature for 60 minutes in 384 well OptiPlate (Perkin Elmer). To quench kinase reactions and detect phosphorylated MKK4, 15 μL of TR-FRET antibody mixture containing 2 nM anti-phosphorylated MKK4 labeled with Europium cryptate (Cisbio) and 23 nM anti-HIS labeled with D2 (Cisbio) in detection buffer (25 mM Tris pH 7.5, 100 mM NaCl, 100 mM EDTA, 0.01% Tween-20, and 200 mM KF) was added to the reaction mixture. The detection mixture was incubated for 3 hours at ambient temperature and the TR-FRET was detected with an EnVision multilabel plate reader (Perkin-Elmer) using the LANCE/DELFIA Dual Enh label from Perkin-Elmer (excitation filter: UV2 (TRF) 320 and emission filters: APC 665 and Europium 615).

Ki [nM] | SMILES
639 | Cc1ccnc(Nc2cc(C3CCCN(C(=O)Cc4ccccc4)C3)nc(C)n2)c1 (configuration not stated)
54.8 | COC[C@H]1CCCN1c1nc(Nc2cc(C(F)(F)F)ccn2)cc(C2CCN(C(C)=O)CC2)n1

From ChEMBL document CHEMBL5726706, “C-linked heterocycloaklyl substituted pyrimidines and their uses” (2018)
